{"source": "patent US20230190657A1", "about": "“METHODS AND COMPOSITIONS FOR TREATING A FIBROTIC DISEASE” (TRUSTEES OF BOSTON UNIVERSITY, priority 2020, published 2023)", "key": {"[1]": {"test": "Circular dichroism spectroscopy of relaxin-2 fold and stability", "format": "physicochemical", "protocol": "Relaxin-2 loaded PLGA microparticles (RMPs) were prepared based on the water/oil/water (w/o/w) method as described by Igartua, M., et. al., International Journal of Pharmaceutics, 1998, 169(1): 45-54 at 1.27 x 10-3 wt % loaded relaxin as determined by ELISA analysis. Significant optimization and tailoring of the method was required to obtain the particle. Amounts, time, temperature, mixing speed, polymer LA:GA content were all varied to identify a unique non-obvious set of conditions to prepare the polymer. […] Relaxin-2 in the relaxin-2 microparticles maintained its native secondary and tertiary structure through the w/o/w double-emulsion process. […] Additionally, relaxin-2 was stable at 37° C. over 2 months (FIG. 2, right). The relaxin-2 PLGA microparticles were prepared with batch-to-batch consistency and were resuspended in PEG-600 to reduce aggregation and flocculation, as well as to ease administration through a 23G needle.\nTwo amphiphilic hydrogels were synthesized for the physical entrapment of relaxin-2 in order to control its sustained release (FIG. 6). These amphiphilic molecules melted at 95 °C and congealed when slowly cooled back to room temperature strictly from non-covalent interactions. The alkyl chain of 1 and alkyl fluoride chain of 2 allow for hydrophobic interactions between each molecule, while the […] and thymidine moieties allow for pi-pi stacking. Lastly, the deoxyribose and glucose groups facilitate hydrogen bonding (Godeau, G., et al., Tetrahedron Letters 2010, 51: 1012-1015; Ramen, F.A. et al., Biomaterials. 2017, 145: 72-80). Together, these amphiphilic molecules create unique and stable supramolecular assemblies that are stable at 37 °C for at least two weeks. This stability feature is another novel finding and benefit to the use of the hydrogels. Three gels of each 1 and 2 were created with bovine serum albumin and relaxin-2 at different densities by dissolving each molecule in a solution of phosphate buffered saline with protein and heating to 95 °C for 30 minutes. […] After cooling down to room temperature, relaxin-2-loaded gels were fully congealed (FIG. 7, right)."}, "[2]": {"system": "collagen I expression in human fibroblast-like synoviocytes (HFLS)", "test": "Collagen I expression in HFLS treated with relaxin-2 microparticles in transwells", "format": "cell-based", "from_the_text": "Human fibroblast-like synoviocytes (HFLS) treated with relaxin-2 microparticles in transwells allow for evaluation of the release and efficacy of released relaxin-2 at various time points. […] In the presence of relaxin-2, collagen I is expressed at 20 to 30 % of the basal level at weeks 1, 3, and 4."}, "[3]": {"system": "stiff shoulder (shoulder contracture), glenohumeral joint", "test": "Range of motion in rat shoulder contracture model", "format": "in vivo, rats", "protocol": "The study was approved by the Institutional Animal Care and Use Committee, and 10 Sprague-Dawley rats (250-300 g, Charles River Laboratories, Wilmington, MA, USA) were used in the study. For each animal, torque was measured per degree, on the intact left shoulder as a function of rotation angle between 80° of internal rotation (negative values by convention) and 60° of external rotation (positive values by convention) prior to any surgical intervention (baseline). […] Therefore, torque values at 60° external rotation (rOUT) and 80° of internal rotation (τINT) were recorded for each animal.\nThe left forelimb of each animal was immobilized using extraarticular internal fixation. Under isoflurane anesthesia, a longitudinal skin incision was made perpendicular to the scapular spine. Two No. 2-0 braided polyester sutures (Ethibond Excel, Ethicon - San Lorenzo, PR, USA) were passed between the medial border of the scapula and the humeral shaft and tightened to immobilize the shoulder joint (FIG. 1, panel A). Muscular structures were not manipulated during surgery, and the animals were allowed normal activity in their cages immediately after the procedure.\nAfter 8 weeks of immobilization, the restraining sutures were removed, and the 10 animals were divided into two groups to evaluate changes in ROM (ROM group, n = 5) and joint stiffness (stiffness group, n = 5). In the ROM group, changes in kinematics were longitudinally quantified in the follow-up period by measuring the ROM achieved with the τOUT and τINT measured at baseline. This was conducted to evaluate whether immobilization mediated a significant reduction in ROM. In the stiffness group, joint kinetics were examined by measuring the differences in τOUT and τINT needed to achieve the original 80° of internal rotation and 60° of external rotation, respectively. […]\nTo reproducibly capture ROM and torque, passive limb rotation was performed by a stepper motor controlled with a microcontroller (UNO R3, Arduino - Torino, Italy). […] In the ROM group, pre-set programmable torque values, specific for each animal and measured at baseline (τOUT and τINT), were used as input variables in order to detect changes in rotation ROM with 0.2° resolution. […]\nThis study investigated the effects of recombinant human relaxin-2 on the kinetics and kinematics of the glenohumeral joint in an animal model of shoulder contracture, as described in Villa-Camacho et al., Journal of Shoulder and Elbow Surgery, 2015, 24(11): 1809-16. […] For each animal, torque was measured per degree, on the intact left shoulder as a function of rotation angle between […] and 60° of external rotation prior to any surgical intervention. […]"}, "[4]": {"system": "shoulder joint (arthrofibrosis)", "test": "Histological analysis of the shoulder joint in rat shoulder contracture model", "format": "in vivo", "settings": "immobilized shoulders of rats; mIA of relaxin-2 or relaxin loaded microparticles"}, "[5]": {"system": "human fibroblasts", "settings": "cited from earlier work"}, "[6]": {"system": "collagen build-up in the lung induced by bleomycin", "settings": "cited from earlier work"}, "[7]": {"system": "cultured renal fibroblasts, epithelial cells and mesangial cells", "settings": "cited from earlier work"}, "[8]": {"system": "heart failure", "settings": "30 micrograms/kg/day for 2 days, intravenous infusion; cited from earlier work"}, "[9]": {"settings": "in vivo; cited from earlier work"}, "[10]": {"system": "scleroderma (systemic sclerosis)", "settings": "cited from earlier work"}}, "note": "“Also recorded” adds a separate entry of the source.", "data": [{"substance": "Relaxin-2", "values": [{"measurement": "time stable at 37° C. without loss of alpha helical structure", "setting": "[1]", "value": "up to 2 months"}, {"measurement": "time stable at 37° C. without loss of alpha helical structure", "setting": "[1]; listed as relaxin-2", "value": 2, "unit": "months"}, {"measurement": "conformation after incubation at 95° C.", "setting": "[1]; 95° C., at least one hour", "value": "maintains its folded 3D structure; also recorded: tolerant to incubation for at least one hour"}, {"measurement": "secondary (alpha helical) structure after the double emulsion process", "setting": "[1]; w/o/w double emulsion of PLGA microparticle synthesis", "value": "no change; also recorded: unaffected by the double emulsion process"}, {"measurement": "antifibrotic efficacy (downregulation of collagen I expression) of released relaxin-2", "setting": "[2]; HFLS / synoviocytes, over four weeks, versus untreated control", "value": "significant downregulation in collagen I expression"}, {"measurement": "collagen I level by densitometry (reduced to)", "setting": "[2]; synoviocytes, legend of FIG. 4 breaks off", "value": "approximately 50%"}, {"measurement": "internal ROM", "setting": "[3]; intravenous injection at a much greater dose", "value": "similarly constricted internal ROM compared with the untreated control group"}, {"measurement": "internal ROM", "setting": "[3]; relaxin-2 as mIA (5 intraarticular injections of 2 ug/kg every other day), RMP as single injection of approximately 10 ug/kg", "value": "significant increase back to healthy baseline by week 2"}, {"measurement": "internal ROM", "setting": "[3]; relaxin-2 as mIA (5 intraarticular injections of 2 ug/kg every other day), RMP as single injection of approximately 10 ug/kg, listed as relaxin-2", "value": "restoration of internal ROM to baseline measurements"}, {"measurement": "internal ROM", "setting": "[3]; singular articular injection", "value": "similarly constricted internal ROM compared with the untreated control group"}, {"measurement": "histology: adhesions / hallmarks of arthrofibrosis", "setting": "[4]", "value": "lacked any apparent adhesions"}, {"measurement": "collagen and fibronectin levels", "setting": "[5]", "value": "reduction in levels of collagen types I and III and fibronectin"}, {"measurement": "lung collagen build-up", "setting": "[6]", "value": "decreased collagen build-up in the lung induced by bleomycin"}, {"measurement": "TGF-β-induced fibronectin levels", "setting": "[7]", "value": "decreased TGF-β-induced fibronectin levels"}, {"measurement": "primary endpoint of effectiveness", "setting": "[8]", "value": "did not meet the trial’s primary endpoint of effectiveness"}, {"measurement": "pharmacokinetic profile", "setting": "[9]", "value": "rapid pharmacokinetic profile"}, {"measurement": "primary endpoint of effectiveness", "setting": "[10]; 25 micrograms/kg/day for 24 weeks, subcutaneous delivery", "value": "did not meet the trial’s primary endpoint of effectiveness"}, {"measurement": "renal adverse events", "setting": "[10]; human, in vivo, sc", "value": "declines in creatine clearance and renal adverse events"}]}]}
